The subject of assay [1] is MCF-7 cells. Nature of the assay: Cell cycle analysis by flow cytometry (PI staining). It is filed as cell-based, human. To be noted: MCF-7 treated at IC50 concentration; for percentage of cells in pre-G1 phase (%Pre-G1) / percentage of cells in G2/M phase (%G2/M) / percentage of cells in S phase (%S) / percentage of cells in G0/G1 phase (%G0-G1): 24 h; for percentage of cells in pre-G1 phase (%Pre-G1): untreated control 1.85%; for percentage of cells in G2/M phase (%G2/M): untreated control 11.84%; for percentage of cells in S phase (%S): untreated control 29.95%; for percentage of cells in G0/G1 phase (%G0-G1): untreated control 58.21%. The protocol: For further investigation of the promising antiproliferative activity of compounds 11, 12, 13 and 27 on breast cancer MCF-7 cell line, cell cycle analysis was carried out using flow cytometric assay. […] The flow cytometric assay results were compared to the negative control untreated MCF-7 cell line.
MCF-7 cells were seeded in 24-well plate at a density of 2 × 10^5 cells/well, treated with the test compounds 11, 12, 13 and 27 at different concentrations and incubated at 37 °C for 24 h in 5% CO2 atmosphere. The cells were washed with ice-cold phosphate buffer saline (PBS) twice and fixed in 70% ice-cold ethanol overnight and then suspended in (PBS) containing PI (DNA staining solution) at concentration of 50 µg/mL, 0.1 mg/mL RNAase A (Sigma, USA) and 0.05% Triton X-100. Cells were analysed by flow cytometry after 30 min at 37 n the dark using FACSCalibur (Becton Dickinson FACS, San Jose, CA) flow cytometer. The cell cycle distributions were measured using Cell-Quest software.
Suppl. S3. Cell cycle analysis for compounds 11, 12, 13 and 27 […]
Assay : Cell Cycle Analysis
Kit used : ab139418_Propidium Iodide Flow Cytometry Kit/BD
Assay samples : Cell culture
Table S3. Cell cycle phase distribution in MCF-7 cell line treated with vehicle control and the newly synthesised compounds; 11, 12, 13 and 27. […]
In general terms: In flow cytometry, cells or beads pass a laser one at a time.

Assay [2] has as its system MCF-7 cells. Nature of the assay: Annexin V-FITC/PI double staining flow cytometry, apoptosis and necrosis. To be noted: MCF-7 treated at IC50 concentration, 24 h; for % Late apoptosis: untreated control 0.33%; for % Early apoptosis: untreated control 0.37%; for % Necrosis: untreated control 1.15%; for % Total apoptosis: untreated control 1.85%. Format: cell-based, human. The text has this: Apoptosis, which is a programmed cell death, is considered as an important way to express cell death among anticancer agents. Most of the anticancer agents can induce apoptosis in cancerous cells. To examine whether the potent cytotoxic effect of 11, 12, 13 and 27 was attributed to apoptosis or necrosis, annexin V-FITC propidium iodide (PI) double staining flow cytometry assay was applied. […] The cells were then stained with annexin V-FITC propidium iodide (PI) and the percentage of apoptotic cells was determined by flow cytometry. […] Compounds 11, 12, 13 and 27 induced necrotic effect 5.74%, 7.23%, 6.39% and 2.07%, respectively in comparison to the untreated negative control MCF-7 cells (1.15%).
Cell death by apoptosis was detected by flow cytometric method using Annexin-V/FITC propidium iodide Apoptosis Detection Kit Catalog #: K101-25; Biovision, USA). MCF-7 cells were seeded at a density of 2 × 10 ^5 cells/well in 24-well plate, treated with the test compounds 11, 12, 13 and 27 at different concentrations and incubated at 37 °C for 24 h in 5% CO2 atmosphere. Cells were collected and suspended in 500 µl binding buffer and then 5 µl of Annexin V-FITC and 5 µl of PI were added and mixed. The mixture was incubated for 5 min in the dark at room temperature. Cell apoptosis analyses were performed using FACSCalibur (Becton Dickinson FACS, San Jose, CA) flow cytometer.

The test system of the next assay is MDA-MB-231. Nature of the assay: In vitro cytotoxicity screening, MTT assay. The settings on record: Homo sapiens, MDA-MB-231, 24 h, read-out: In vitro Cytotoxicity (IC50, µM) MDA-MB-231.
The next assay deals with T1, PARP-2 enzyme (Homo sapiens, UniProt Q9UGN5).
T1 construct: purchased BPS Bioscience 80,581
T1 sequence (Q9UGN5 whole entry): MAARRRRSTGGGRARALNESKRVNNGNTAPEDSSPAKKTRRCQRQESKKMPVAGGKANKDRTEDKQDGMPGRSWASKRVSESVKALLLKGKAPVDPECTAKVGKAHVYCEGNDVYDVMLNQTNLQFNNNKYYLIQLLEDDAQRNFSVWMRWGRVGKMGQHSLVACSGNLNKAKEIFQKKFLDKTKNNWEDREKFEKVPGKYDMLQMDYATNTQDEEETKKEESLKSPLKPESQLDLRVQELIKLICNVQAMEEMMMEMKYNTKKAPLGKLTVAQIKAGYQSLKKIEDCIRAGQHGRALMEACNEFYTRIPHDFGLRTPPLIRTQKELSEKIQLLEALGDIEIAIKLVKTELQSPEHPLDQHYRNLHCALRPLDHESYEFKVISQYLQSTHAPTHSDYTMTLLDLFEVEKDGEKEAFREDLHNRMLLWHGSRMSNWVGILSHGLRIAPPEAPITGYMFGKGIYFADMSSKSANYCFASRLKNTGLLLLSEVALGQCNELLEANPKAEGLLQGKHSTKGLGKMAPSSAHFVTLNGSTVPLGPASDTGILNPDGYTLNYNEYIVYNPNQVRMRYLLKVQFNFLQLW
Nature of the assay: Poly (ADP-ribose) polymerase 2 (PARP-2) inhibition assay (colorimetric kit). Format: biochemical. The settings on record: for IC50: in vitro enzyme assay. The protocol: Results were expressed as IC50 values (Table 2).
The PARP-2 inhibitory activity of the test compounds was assayed using PARP-2 Colorimetric Activity Assay Kit (BPS Bioscience, catalog 80,581, San Diego, CA, USA) following the manufacturer’s protocol. Briefly, histone protein mixture was coated on a 96-well microtiter plate and incubated at 4 °C overnight, washed with phosphate-buffered saline with tween-20 (PBST) three times then, the wells were blocked by adding blocking buffer 3 and incubated at room temperature for 60–90 min. After that, the plate was washed with PBST buffer three times. The master mixture which contains the PARP buffer, PARP assay mixture, activated DNA and distilled water was added to each well then, the inhibitor solution (test compound) was added. The reaction was initiated by adding PARP-2 enzyme to the wells and the plate was incubated for 1 h at room temperature. After 1 h, the reaction mixture was discarded, and the plate was washed with PBST buffer three times. Finally, the plate was treated with Streptavidin–Horseradish Peroxidase (HRP) and incubated for 30 min at room temperature and then washed with PBST buffer. The colorimetric HRP substrate was added to each well and incubated at room temperature until the positive control well developed blue color. Sulphuric acid was added to each well after the blue color development. The absorbance was read at 450 nm using UV/Vis spectrophotometer microplate reader.
Suppl. S2. In vitro PARP-2 enzyme inhibition assay
Researcher : Dr. Nadeen Ghobashy email:elghobashynadeen@gmail.com mob.01008873340
Reader : ROBONIK P2000 Eliza Reader wl 450 nm

The structures appear in SMILES notation. Entries after “also recorded” stand apart in the source; their conditions may differ.

Source text for MDA-MB-231: Two human breast cancer cell lines, namely, MDA-MB-231 and MCF-7 were obtained from American Type Culture Collection (ATCC) via a holding company for biological products and vaccines (VACSERA), Cairo, Egypt. […] The reagents used were RPMI-1640 medium, MTT, DMSO (sigma co., St. Louis, USA), and Fetal bovine serum (GIBCO, UK). […] MTT is a colorimetric assay based on the conversion of the yellow tetrazolium bromide (MTT) to a purple formazan derivative by mitochondrial succinate dehydrogenase in viable cells. Cell lines were cultured in RPMI-1640 medium with 10% foetal bovine serum. Antibiotics added were 100 units/ml penicillin and 100 µg/ml streptomycin maintained at 37 °C in a 5% CO2 incubator. The cell lines were seeded at a density of approximately 1.0 × 10 ^4 cells/well in a 96-well plate at 37 °C for 48 h under 5% CO2. Different concentrations of compounds were added and incubated for 24 h. After 24 h of drug treatment, 20 µl of MTT staining solution at 5 mg/ml was added to each well and incubated for 4 h at 37 °C. After 4 h, 100 µl of dimethyl sulfoxide (DMSO) were added into each well to dissolve the purple formazan crystals formed. The absorbance was recorded at 570 nm using a plate reader (EXL 800, USA). The relative cell viability in percentage was calculated as (A570 of treated samples/A570 of untreated sample) X 100 [22],[23].

In general, IC50 refers to the concentration at which inhibition is half-maximal. For the compound `O=C(CCN1CCOCC1)Nc1ccc(-c2nc3cc(Cl)ccc3o2)cc1` [Compound 12, N-(4-(5-chlorobenzoxazol-2-yl)phenyl)-3-morpholinopropanamide], in the assay on MCF-7 cells [1], the “percentage of cells in pre-G1 phase (%Pre-G1)” value (“percentage of cells … (%Pre-G1)” below) turned out to be 33.47%, the “percentage of cells in G2/M phase (%G2/M)” value (“percentage … (%G2/M)” below) is recorded as 32.04%, the “percentage of cells in S phase (%S)” value is reported as 26.18% and the “percentage of cells in G0/G1 phase (%G0-G1)” value (“percentage of cells … (%G0-G1)” below) is given as 41.78%. In the assay with MCF-7 cells [2], the “% Late apoptosis” value is 3.72%, the “% Early apoptosis” value came out at 22.52%, the “% Necrosis” value stood at 7.23% and the “% Total apoptosis” value is 33.47%. For the same compound, the IC50 in the assay on MDA-MB-231 stood at 6.14 ± 0.5 µM. For the same compound, the “%inh of PARP-2 (Table S2 raw data)” value at PARP-2 enzyme (conc 0.01 (ng/ml)) was determined as 35.69%. In addition, the “%inh of PARP-2 (Table S2 raw data)” value at PARP-2 enzyme (conc 0.1 (ng/ml)) amounted to 53.11%. Besides, the “%inh of PARP-2 (Table S2 raw data)” value on PARP-2 enzyme (conc 1 (ng/ml)) worked out at 67.93%. Further, the “%inh of PARP-2 (Table S2 raw data)” value at PARP-2 enzyme (conc 10 (ng/ml)) amounted to 90.18%. Further, on PARP-2 enzyme, the IC50 is 70 ± 4 nM.

Regarding `O=C(CCN1CCCCC1)Nc1ccc(-c2nc3cc(Cl)ccc3o2)cc1` [Compound 11, N-(4-(5-chlorobenzoxazol-2-yl)phenyl)-3-(piperidin-1-yl)propanamide], in the assay with MCF-7 cells [1], the “cell cycle arrest phase” value is reported as “cell growth arrest@ G1; also recorded: cell cycle arrest at G0/G1 phase”, the “percentage of cells … (%Pre-G1)” value was 45.07%, the “percentage … (%G2/M)” value was found to be 7.22% and the “percentage of cells in S phase (%S)” value was determined as 24.76%. Moreover, the “percentage of cells … (%G0-G1)” value in the assay on MCF-7 cells [1] came out at 68.02%. In addition, in the assay with MCF-7 cells [2], the “% Late apoptosis” value is listed as 23.02%, the “% Early apoptosis” value was 16.31%, the “% Necrosis” value amounted to 5.74% and the “% Total apoptosis” value was determined as 45.07%. Also, in the assay on MDA-MB-231, the IC50 was determined as 5.63 ± 0.3 µM. For the same compound, the “%inh of PARP-2 (Table S2 raw data)” value on PARP-2 enzyme (conc 0.01 (ng/ml)) came to 28.75%. The “%inh of PARP-2 (Table S2 raw data)” value at PARP-2 enzyme (conc 0.1 (ng/ml)) is recorded as 43.61%. For the same compound, the “%inh of PARP-2 (Table S2 raw data)” value at PARP-2 enzyme (conc 1 (ng/ml)) is on record as 58.88%. The “%inh of PARP-2 (Table S2 raw data)” value on PARP-2 enzyme (conc 10 (ng/ml)) amounted to 84.97%. This compound displayed an IC50 on PARP-2 enzyme of 190 ± 10 nM.

Take `CCN(CC)CCC(=O)Nc1ccc(-c2nc3cc(Cl)ccc3o2)cc1` [Compound 27, N-(4-(5-chlorobenzoxazol-2-yl)phenyl)-3-(diethylamino)propanamide]: in the assay on MCF-7 cells [1], the “percentage of cells … (%Pre-G1)” value amounted to 25.91%, the “percentage … (%G2/M)” value is given as 4.46%, the “percentage of cells in S phase (%S)” value is reported as 33.16% and the “percentage of cells … (%G0-G1)” value is 62.38%. Moreover, in the assay with MCF-7 cells [2], the “% Late apoptosis” value worked out at 4.58%, the “% Early apoptosis” value was 19.26%, the “% Necrosis” value is on record as 2.07% and the “% Total apoptosis” value was 25.91%. For the same compound, the half-inhibitory concentration (IC50) with MDA-MB-231 came out at 11.3 ± 0.9 µM. In addition, the “%inh of PARP-2 (Table S2 raw data)” value at PARP-2 enzyme (conc 0.01 (ng/ml)) is recorded as 37.25%. Besides, the “%inh of PARP-2 (Table S2 raw data)” value on PARP-2 enzyme (conc 0.1 (ng/ml)) is on record as 52.67%. For the same compound, the “%inh of PARP-2 (Table S2 raw data)” value at PARP-2 enzyme (conc 1 (ng/ml)) worked out at 73.48%. Also, the “%inh of PARP-2 (Table S2 raw data)” value on PARP-2 enzyme (conc 10 (ng/ml)) came out at 88.84%. In addition, the IC50 on PARP-2 enzyme was found to be 57 ± 3 nM.

With `CN1CCN(CCC(=O)Nc2ccc(-c3nc4cc(Cl)ccc4o3)cc2)CC1` [Compound 13, N-(4-(5-chlorobenzoxazol-2-yl)phenyl)-3-(4-methylpiperazin-1-yl)propanamide], in the assay with MCF-7 cells [1], the “cell cycle arrest phase” value is “cell growth arrest@ G2/M; also recorded: cell cycle arrest at G2/M phase”, the “percentage of cells … (%Pre-G1)” value is on record as 29.66%, the “percentage … (%G2/M)” value stood at 26.51% and the “percentage of cells in S phase (%S)” value amounted to 28.51%. Moreover, the “percentage of cells … (%G0-G1)” value in the assay with MCF-7 cells [1] came to 44.98%. In the assay with MCF-7 cells [2], the “% Late apoptosis” value came to 10.99%, the “% Early apoptosis” value is recorded as 12.28%, the “% Necrosis” value is recorded as 6.39% and the “% Total apoptosis” value is recorded as 29.66%. The IC50 with MDA-MB-231 was found to be 7.52 ± 0.6 µM. The “%inh of PARP-2 (Table S2 raw data)” value on PARP-2 enzyme (conc 0.01 (ng/ml)) was 30.58%. Also, at PARP-2 enzyme (conc 0.1 (ng/ml)), the “%inh of PARP-2 (Table S2 raw data)” value was 46.82%. Further, at PARP-2 enzyme (conc 1 (ng/ml)), the “%inh of PARP-2 (Table S2 raw data)” value was determined as 71.31%. Also, on PARP-2 enzyme (conc 10 (ng/ml)), the “%inh of PARP-2 (Table S2 raw data)” value is listed as 88.69%. At PARP-2 enzyme, this compound showed a half-maximal inhibitory concentration (IC50) of 106 ± 6 nM.

The values are drawn from article PMC9519869, “Synthesis, biological evaluation, and molecular modeling studies of new benzoxazole derivatives as PARP-2 inhibitors targeting breast cancer” (Scientific Reports, 2022).
